Experimental data taken from the kinase profiling compilation of Christmann-Franck et al. (2016).

Columns and labels:
Assay in all cases: KINOMEscan competition binding
Details in all cases: compound 10.0 µM
ACVR1B (human) = ACVR1B (human) (UniProt P36896)
ADCK4 (human) = ADCK4 (human) (UniProt Q96D53)
CAMK1D (human) = CAMK1D (human) (UniProt Q8IU85)
CDK15 (human) = CDK15 (human) (UniProt Q96Q40)
CDK7 (human) = CDK7 (human) (UniProt P50613)
CHUK (human) = CHUK (human) (UniProt O15111)
CSNK1A1L (human) = CSNK1A1L (human) (UniProt Q8N752)
CSNK2A1 (human) = CSNK2A1 (human) (UniProt P68400)
EPHA5 (human) = EPHA5 (human) (UniProt P54756)
EPHB6 (human) = EPHB6 (human) (UniProt O15197)
FGFR1 (human) = FGFR1 (human) (UniProt P11362)
FLT1 (human) = FLT1 (human) (UniProt P17948)
FLT1 (human), sequence (P17948 whole entry, looked up): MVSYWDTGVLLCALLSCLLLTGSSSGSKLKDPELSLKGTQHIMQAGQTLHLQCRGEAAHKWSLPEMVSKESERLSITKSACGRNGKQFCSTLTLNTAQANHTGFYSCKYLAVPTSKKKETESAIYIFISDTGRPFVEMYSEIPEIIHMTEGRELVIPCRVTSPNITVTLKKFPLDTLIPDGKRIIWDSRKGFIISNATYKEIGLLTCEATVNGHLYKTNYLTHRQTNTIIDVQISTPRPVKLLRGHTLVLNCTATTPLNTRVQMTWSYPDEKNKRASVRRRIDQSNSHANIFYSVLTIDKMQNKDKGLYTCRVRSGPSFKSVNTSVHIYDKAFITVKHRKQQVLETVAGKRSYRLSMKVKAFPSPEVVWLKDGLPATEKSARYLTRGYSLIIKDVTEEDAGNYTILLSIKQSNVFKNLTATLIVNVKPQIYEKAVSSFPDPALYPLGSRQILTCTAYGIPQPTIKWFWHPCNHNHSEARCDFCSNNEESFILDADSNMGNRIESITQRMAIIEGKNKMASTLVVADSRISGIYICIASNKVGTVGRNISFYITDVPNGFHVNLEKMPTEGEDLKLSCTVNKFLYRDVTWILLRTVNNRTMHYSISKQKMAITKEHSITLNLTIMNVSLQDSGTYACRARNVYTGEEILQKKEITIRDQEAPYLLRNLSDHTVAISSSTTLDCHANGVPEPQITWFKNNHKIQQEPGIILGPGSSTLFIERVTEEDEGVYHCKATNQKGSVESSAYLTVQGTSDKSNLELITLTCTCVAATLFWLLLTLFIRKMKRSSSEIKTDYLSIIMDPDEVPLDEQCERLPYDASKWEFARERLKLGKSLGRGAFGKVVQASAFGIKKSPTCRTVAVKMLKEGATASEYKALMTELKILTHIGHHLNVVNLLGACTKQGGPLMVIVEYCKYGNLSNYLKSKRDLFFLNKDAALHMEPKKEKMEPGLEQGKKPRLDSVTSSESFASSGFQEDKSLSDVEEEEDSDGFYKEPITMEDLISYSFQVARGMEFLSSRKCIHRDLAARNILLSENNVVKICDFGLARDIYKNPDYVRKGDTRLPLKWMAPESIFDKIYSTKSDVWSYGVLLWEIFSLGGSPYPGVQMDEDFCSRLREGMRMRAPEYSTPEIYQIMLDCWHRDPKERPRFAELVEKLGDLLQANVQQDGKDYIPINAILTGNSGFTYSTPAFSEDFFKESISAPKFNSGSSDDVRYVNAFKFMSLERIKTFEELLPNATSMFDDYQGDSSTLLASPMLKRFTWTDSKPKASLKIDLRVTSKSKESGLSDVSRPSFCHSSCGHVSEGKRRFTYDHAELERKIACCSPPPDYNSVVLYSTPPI

GAK (human) = GAK (human) (UniProt O14976)
HCK (human) = HCK (human) (UniProt P08631)
[1] = biological target: JAK1 JH2 pseudokinase (human) (UniProt P23458)
LRRK2 (human) = LRRK2 (human) (UniProt Q5S007)
MAP3K4 (human) = MAP3K4 (human) (UniProt Q9Y6R4)
MKNK2 (human) = MKNK2 (human) (UniProt Q9HBH9)
MST1R (human) = MST1R (human) (UniProt Q04912)
NEK11 (human) = NEK11 (human) (UniProt Q8NG66)
NEK11 (human), sequence (Q8NG66 whole entry, looked up): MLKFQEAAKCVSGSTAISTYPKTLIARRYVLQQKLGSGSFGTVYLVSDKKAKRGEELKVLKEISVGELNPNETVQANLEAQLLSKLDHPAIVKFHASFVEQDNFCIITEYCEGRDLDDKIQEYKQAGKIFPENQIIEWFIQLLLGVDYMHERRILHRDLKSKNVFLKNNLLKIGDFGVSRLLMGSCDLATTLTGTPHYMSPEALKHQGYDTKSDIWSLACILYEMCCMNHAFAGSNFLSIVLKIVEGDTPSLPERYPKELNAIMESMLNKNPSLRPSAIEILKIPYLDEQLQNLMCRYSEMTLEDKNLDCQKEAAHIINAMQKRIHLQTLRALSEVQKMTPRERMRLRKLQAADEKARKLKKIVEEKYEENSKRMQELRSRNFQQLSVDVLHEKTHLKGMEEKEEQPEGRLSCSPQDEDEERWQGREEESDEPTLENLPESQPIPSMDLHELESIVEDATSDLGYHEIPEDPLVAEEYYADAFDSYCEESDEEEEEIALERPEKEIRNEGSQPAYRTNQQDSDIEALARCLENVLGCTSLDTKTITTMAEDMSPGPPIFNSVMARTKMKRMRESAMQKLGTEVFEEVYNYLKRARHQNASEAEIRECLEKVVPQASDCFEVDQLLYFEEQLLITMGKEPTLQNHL

NEK5 (human) = NEK5 (human) (UniProt Q6P3R8)
NEK5 (human), sequence (Q6P3R8 whole entry, looked up): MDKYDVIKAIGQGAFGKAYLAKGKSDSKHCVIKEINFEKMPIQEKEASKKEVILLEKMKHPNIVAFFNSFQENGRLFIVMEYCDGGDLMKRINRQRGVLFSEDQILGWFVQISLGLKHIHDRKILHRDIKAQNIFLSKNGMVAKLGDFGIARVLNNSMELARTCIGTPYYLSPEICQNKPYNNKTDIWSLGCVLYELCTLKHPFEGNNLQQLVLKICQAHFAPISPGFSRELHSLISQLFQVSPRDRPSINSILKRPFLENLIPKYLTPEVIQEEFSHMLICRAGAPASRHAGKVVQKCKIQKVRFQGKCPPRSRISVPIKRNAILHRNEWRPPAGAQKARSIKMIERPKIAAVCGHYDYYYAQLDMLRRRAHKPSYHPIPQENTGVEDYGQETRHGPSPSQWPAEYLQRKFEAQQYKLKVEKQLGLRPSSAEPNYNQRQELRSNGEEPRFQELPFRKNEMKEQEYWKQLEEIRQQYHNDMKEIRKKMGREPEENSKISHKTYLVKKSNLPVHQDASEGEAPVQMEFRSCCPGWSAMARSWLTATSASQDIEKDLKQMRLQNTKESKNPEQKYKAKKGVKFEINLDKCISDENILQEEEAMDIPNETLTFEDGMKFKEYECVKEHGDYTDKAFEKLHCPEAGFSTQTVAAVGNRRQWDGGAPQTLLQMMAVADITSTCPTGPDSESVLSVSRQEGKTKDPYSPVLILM

NEK7 (human) = NEK7 (human) (UniProt Q8TDX7)
NEK7 (human), sequence (Q8TDX7 whole entry, looked up): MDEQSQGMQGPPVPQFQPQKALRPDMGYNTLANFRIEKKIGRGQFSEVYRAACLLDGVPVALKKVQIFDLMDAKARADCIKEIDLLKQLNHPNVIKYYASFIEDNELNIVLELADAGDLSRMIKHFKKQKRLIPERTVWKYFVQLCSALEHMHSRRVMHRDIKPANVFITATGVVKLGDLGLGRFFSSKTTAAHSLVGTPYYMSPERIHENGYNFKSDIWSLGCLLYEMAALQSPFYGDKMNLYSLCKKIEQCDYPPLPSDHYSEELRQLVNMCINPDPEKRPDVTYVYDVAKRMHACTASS

NEK9 (human) = NEK9 (human) (UniProt Q8TD19)
NTRK1 (human) = NTRK1 (human) (UniProt P04629)
PAK4 (human) = PAK4 (human) (UniProt O96013)
PDPK1 (human) = PDPK1 (human) (UniProt O15530)
PKN1 (human) = PKN1 (human) (UniProt Q16512)
PKN3 (M.tuberculosis) = PKN3 (M.tuberculosis) (UniProt Q6P5Z2)
PKN3 (M.tuberculosis), sequence (Q6P5Z2 whole entry, looked up): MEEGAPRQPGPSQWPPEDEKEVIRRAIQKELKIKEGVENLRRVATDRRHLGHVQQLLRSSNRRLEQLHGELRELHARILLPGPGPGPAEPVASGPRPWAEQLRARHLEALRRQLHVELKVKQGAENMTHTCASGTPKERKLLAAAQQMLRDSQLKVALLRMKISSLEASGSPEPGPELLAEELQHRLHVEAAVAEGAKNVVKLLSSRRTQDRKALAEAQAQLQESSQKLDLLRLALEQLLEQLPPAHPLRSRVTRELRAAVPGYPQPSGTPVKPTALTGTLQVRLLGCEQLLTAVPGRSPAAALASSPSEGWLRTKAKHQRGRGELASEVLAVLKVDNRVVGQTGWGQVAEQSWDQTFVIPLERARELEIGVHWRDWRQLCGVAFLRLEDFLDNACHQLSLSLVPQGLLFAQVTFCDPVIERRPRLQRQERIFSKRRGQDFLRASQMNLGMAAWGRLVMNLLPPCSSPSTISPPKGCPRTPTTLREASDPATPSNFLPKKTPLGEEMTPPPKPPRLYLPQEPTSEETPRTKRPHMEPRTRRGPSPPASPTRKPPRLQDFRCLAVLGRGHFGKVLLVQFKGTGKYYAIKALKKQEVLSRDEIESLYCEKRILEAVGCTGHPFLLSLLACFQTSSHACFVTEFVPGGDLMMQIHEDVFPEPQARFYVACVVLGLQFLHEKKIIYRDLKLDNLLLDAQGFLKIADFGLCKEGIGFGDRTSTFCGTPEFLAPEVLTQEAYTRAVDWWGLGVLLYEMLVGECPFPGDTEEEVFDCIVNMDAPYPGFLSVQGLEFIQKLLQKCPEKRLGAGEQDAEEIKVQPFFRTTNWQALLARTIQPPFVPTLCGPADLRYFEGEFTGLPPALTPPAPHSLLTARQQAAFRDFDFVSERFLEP

RIPK1 (human) = RIPK1 (human) (UniProt Q13546)
RIPK2 (human) = RIPK2 (human) (UniProt O43353)
ROS1 (human) = ROS1 (human) (UniProt P08922)
SRPK3 (human) = SRPK3 (human) (UniProt Q9UPE1)
STK16 (human) = STK16 (human) (UniProt O75716)
STK16 (human), sequence (O75716 whole entry, looked up): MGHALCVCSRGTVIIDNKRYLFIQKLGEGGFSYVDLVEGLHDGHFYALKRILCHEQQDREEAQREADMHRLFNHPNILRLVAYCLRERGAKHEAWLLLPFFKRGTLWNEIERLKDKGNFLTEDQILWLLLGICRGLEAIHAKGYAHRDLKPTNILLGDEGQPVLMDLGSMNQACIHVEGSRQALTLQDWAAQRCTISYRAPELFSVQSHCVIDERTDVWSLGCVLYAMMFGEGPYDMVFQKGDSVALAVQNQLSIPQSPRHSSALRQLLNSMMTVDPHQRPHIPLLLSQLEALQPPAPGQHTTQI

STK17B (human) = STK17B (human) (UniProt O94768)
STK32C (human) = STK32C (human) (UniProt Q86UX6)
STK38L (human) = STK38L (human) (UniProt Q9Y2H1)
TLK1 (human) = TLK1 (human) (UniProt Q9UKI8)
TNK2 (human) = TNK2 (human) (UniProt Q07912)
YES1 (human) = YES1 (human) (UniProt P07947)
YSK4 (human) = YSK4 (human) (UniProt Q56UN5)

ACVR1B (human), sequence (P36896 whole entry, looked up): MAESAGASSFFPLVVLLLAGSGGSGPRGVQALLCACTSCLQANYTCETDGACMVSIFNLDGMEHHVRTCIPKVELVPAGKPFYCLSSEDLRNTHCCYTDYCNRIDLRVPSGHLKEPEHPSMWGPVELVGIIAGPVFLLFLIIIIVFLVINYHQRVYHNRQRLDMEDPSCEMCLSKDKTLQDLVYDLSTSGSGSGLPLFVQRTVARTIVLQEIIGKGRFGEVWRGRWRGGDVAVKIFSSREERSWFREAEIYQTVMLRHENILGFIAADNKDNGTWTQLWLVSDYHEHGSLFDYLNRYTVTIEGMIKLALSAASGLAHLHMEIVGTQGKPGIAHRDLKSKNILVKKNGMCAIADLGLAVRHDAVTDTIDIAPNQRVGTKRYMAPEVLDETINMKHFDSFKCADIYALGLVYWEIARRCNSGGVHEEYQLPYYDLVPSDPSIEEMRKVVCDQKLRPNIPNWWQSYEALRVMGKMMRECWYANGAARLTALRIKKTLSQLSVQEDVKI
CDK7 (human), sequence (P50613 whole entry, looked up): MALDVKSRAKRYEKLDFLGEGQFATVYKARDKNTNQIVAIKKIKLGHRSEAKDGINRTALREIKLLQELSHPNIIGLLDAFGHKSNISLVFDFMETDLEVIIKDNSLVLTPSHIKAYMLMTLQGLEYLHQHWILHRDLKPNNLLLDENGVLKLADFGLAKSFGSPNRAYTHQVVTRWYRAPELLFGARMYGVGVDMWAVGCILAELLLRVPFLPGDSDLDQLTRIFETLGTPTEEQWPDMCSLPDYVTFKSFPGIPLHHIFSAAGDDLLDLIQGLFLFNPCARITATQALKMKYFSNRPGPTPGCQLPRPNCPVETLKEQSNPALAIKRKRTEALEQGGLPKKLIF

Structure (SMILES) | kinase still bound, per cent of control (ACVR1B (human)) | kinase still bound, per cent of control (ADCK4 (human)) | kinase still bound, per cent of control (CAMK1D (human)) | kinase still bound, per cent of control (CDK15 (human)) | kinase still bound, per cent of control (CDK7 (human)) | kinase still bound, per cent of control (CHUK (human)) | kinase still bound, per cent of control (CSNK1A1L (human)) | kinase still bound, per cent of control (CSNK2A1 (human)) | kinase still bound, per cent of control (EPHA5 (human)) | kinase still bound, per cent of control (EPHB6 (human)) | kinase still bound, per cent of control (FGFR1 (human)) | kinase still bound, per cent of control (FLT1 (human)) | kinase still bound, per cent of control (GAK (human)) | kinase still bound, per cent of control (HCK (human)) | kinase still bound, per cent of control [1] | kinase still bound, per cent of control (LRRK2 (human)) | kinase still bound, per cent of control (MAP3K4 (human)) | kinase still bound, per cent of control (MKNK2 (human)) | kinase still bound, per cent of control (MST1R (human)) | kinase still bound, per cent of control (NEK11 (human)) | also measured
COc1cc2ncnc(-n3nc(-c4ccccn4)nc3N)c2cc1OC | 14% | 14% | 34% | 88% | 5.4% | 44% | 32% | 4.4% | 19% | 2.2% | 65% | 48% | 2.6% | 12% | 0.4% | 41% | 100% | 8.4% | 100% | 80% | kinase still bound, per cent of control (NEK5 (human)): 26%; kinase still bound, per cent of control (NEK7 (human)): 1.4%; kinase still bound, per cent of control (NEK9 (human)): 2.2%; kinase still bound, per cent of control (NTRK1 (human)): 48%; kinase still bound, per cent of control (PAK4 (human)): 72%; kinase still bound, per cent of control (PDPK1 (human)): 90%; kinase still bound, per cent of control (PKN1 (human)): 100%; kinase still bound, per cent of control (PKN3 (M.tuberculosis)): 7.1%; kinase still bound, per cent of control (RIPK1 (human)): 86%; kinase still bound, per cent of control (RIPK2 (human)): 2.6%; kinase still bound, per cent of control (ROS1 (human)): 25%; kinase still bound, per cent of control (SRPK3 (human)): 38%; kinase still bound, per cent of control (STK16 (human)): 2.8%; kinase still bound, per cent of control (STK17B (human)): 9.4%; kinase still bound, per cent of control (STK32C (human)): 44%; kinase still bound, per cent of control (STK38L (human)): 69%; kinase still bound, per cent of control (TLK1 (human)): 46%; kinase still bound, per cent of control (TNK2 (human)): 54%; kinase still bound, per cent of control (YES1 (human)): 77%; kinase still bound, per cent of control (YSK4 (human)): 0.45%
NC(=O)Nc1cc(-c2cccc(F)c2)sc1C(=O)N[C@@H]1CCCNC1 | 28% | 55% | 0.2% | 73% | 4.9% | 0% | 2.4% | 0.35% | 4.8% | 50% | 1.3% | 0.1% | 2.9% | 0% | 2.5% | 4% | 42% | 0% | 12% | 100% | kinase still bound, per cent of control (NEK5 (human)): 90%; kinase still bound, per cent of control (NEK7 (human)): 72%; kinase still bound, per cent of control (NEK9 (human)): 80%; kinase still bound, per cent of control (NTRK1 (human)): 0%; kinase still bound, per cent of control (PAK4 (human)): 1.2%; kinase still bound, per cent of control (PDPK1 (human)): 0.7%; kinase still bound, per cent of control (PKN1 (human)): 0%; kinase still bound, per cent of control (PKN3 (M.tuberculosis)): 0%; kinase still bound, per cent of control (RIPK1 (human)): 100%; kinase still bound, per cent of control (RIPK2 (human)): 40%; kinase still bound, per cent of control (ROS1 (human)): 2%; kinase still bound, per cent of control (SRPK3 (human)): 0.55%; kinase still bound, per cent of control (STK16 (human)): 21%; kinase still bound, per cent of control (STK17B (human)): 2%; kinase still bound, per cent of control (STK32C (human)): 53%; kinase still bound, per cent of control (STK38L (human)): 0%; kinase still bound, per cent of control (TLK1 (human)): 0.9%; kinase still bound, per cent of control (TNK2 (human)): 0.85%; kinase still bound, per cent of control (YES1 (human)): 0.2%; kinase still bound, per cent of control (YSK4 (human)): 0%
